Experimental data taken from patent US9012655B2, “Antimicrobial/adjuvant compounds and methods” (Denouamed, Inc., priority 2011, dated 2015).
≈ marks a conversion by molar mass, not a printed value. Values belong to the compound of their own block, whether it stands above or below them.

Columns and labels:
AcpS enzyme = AcpS enzyme (Escherichia coli, UniProt P24224); experiment: Measurement of AcpS inhibition ([3H]acetyl-CoA incorporation into apo-ACP); assay type: biochemical; settings: % activity vs blank-subtracted counts; for activity at 50 µM / % AcpS activity at 50 uM: test compound 50 uM; for remaining activity at 500 µM / % AcpS activity @ 500 uM: test compound 500 uM
Method: [^3H]Acetyl-CoA was mixed as 1 volume of Perkin Elmer NET290 radiolabeled stock (e.g. 0.1 mCi/ml, 3.7 Ci/mmol in Na-acetate, pH 4.5-5.0=27 μM) with 1.2 volumes of 1 mM unlabelled acetyl-CoA (Sigma). Trichloroacetic acid was prepared as a 10% w/v solution. Bovine serum albumin was prepared as a 25 mg/ml solution in water. DTT was prepared as a 50 mM solution in water.
• 1. A standard reaction contained the following in a total volume of 10 μl:
• 2. Tubes were incubated at RT. [^3H]acetyl-CoA was added last to start the reaction. To stop the reaction, 2 μl was removed to a 1.5-ml microfuge tube containing 800 μl cold 10% TCA. Up to four time points were collected for each reaction, e.g. at 5 min, 10 min, 30 min, and 60 min. • 3. 20 μl of 25 mg/ml BSA was added to each tube, mixed and incubated on ice for 10 min, then centrifuged at 12,000 g for 5 min to form a pellet. Supernatant was removed using P1000. • 4. Each pellet was washed twice with 800 μl of cold 10% TCA each time, then centrifuged at 12,000 g for 5 min after each wash. The supernatant was discarded. Each pellet was resuspended in 50 μl of formic acid. The suspension was transferred to a scintillation vial and radioactivity was measured in 2 ml of liquid scintillation cocktail.
The random (stochastic) error in scintillation counting is proportional to the square root of the counts (not dpm) accumulated in the counting period; i.e. 10% for 100, 3.3% for 1,000, 1% for 10,000, etc. Provided radioactive counts (dpm) are in the thousands, the assay provides useful data. Results are reported in terms of % activity with respect to the blank-subtracted counts for working substrate. A % activity of less than about 40% is indicative of AcpS enzyme inhibition by the test compound at that concentration.

[1] = test system: Methicillin-Resistant Staph. aureus (MRSA); experiment: MIC, NCCLS M7-A6 broth microdilution, MRSA; assay type: cell-based; settings: 16 to 20 h, 35 degrees Celsius; for MIC: Staphylococcus aureus, MRSA
Method: (§1) Susceptibilities to the compounds were determined using the National Committee for Clinical Laboratory Standards (NCCLS) M7-A6 broth microdilution method. Cation-adjusted Mueller-Hinton broth (Ca^2+, 25 μg/mL; Mg^2+, 12.5 μg/mL) microdilution panels were prepared to contain antimicrobial doubling dilution concentrations of an appropriate range. DMSO (dimethylsulfoxide) controls were incorporated into the panel to mimic the quantity of DMSO used in dissolving some of the compounds at the higher concentrations. Each final panel well volume was 100 μL with a bacterial inoculum of 5×10^5 CFU (colony forming units)/mL of the relevant bacterium. Panels were read following 16 to 20 h of incubation at 35 degrees Celsius in ambient air. The MIC (minimum inhibitory concentration) was defined as the lowest concentration of antimicrobial inhibiting visible growth.

E. coli D22 = experiment: MIC, NCCLS M7-A6 broth microdilution, E. coli D22; assay type: cell-based; settings: 35 degrees Celsius; for MIC: Escherichia coli, D22, 16 to 20 h; for MIC E coli D22: 16 to 20 h
Method: as §1

[2] = test system: Streptococcus pneumoniae Group A; experiment: MIC against Streptococcus pneumoniae Group A; assay type: cell-based; settings: initial measurement, Todd Hewitt broth
Method: as §1
Generally following the procedure of Example 9, but using Todd Hewitt broth (beef heart digest) rather than Mueller-Hinton broth, MICs were initially measured against Streptococcus pneumoniae Group A for compounds of the present invention as follows: […]

Chain of AcpS enzyme (P24224 whole entry): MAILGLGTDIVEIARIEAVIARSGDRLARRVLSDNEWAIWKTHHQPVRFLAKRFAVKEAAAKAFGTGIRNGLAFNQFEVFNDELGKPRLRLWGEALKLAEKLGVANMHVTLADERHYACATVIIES

SMILES: CCc1ccccc1-c1cc(-c2nnn[nH]2)sc1-c1ccccc1CC [DNM0541, 5-(4,5-Bis(2-ethylphenyl)thiophen-2-yl)-1H-tetrazole]
activity at 50 µM (AcpS enzyme): 63.1%
remaining activity at 500 µM (AcpS enzyme): 0.3%
MIC [1]: 30 µM (≈ 10.8 µg/mL)
MIC (E. coli D22): > 125 µM

SMILES: c1ccc2c(c1)oc1c(-c3cc(-c4nnn[nH]4)sc3-c3cccc4c3oc3ccccc34)cccc12 [DNM0542, 5-(4,5-Bis(dibenzo[b,d]furan-4-yl)thiophen-2-yl)-1H-tetrazole]
activity at 50 µM (AcpS enzyme): 9.58%
remaining activity at 500 µM (AcpS enzyme): 0.7%
MIC [1]: 2 µM (≈ 0.969 µg/mL)
MIC (E. coli D22): > 125 µM

SMILES: CC(C)(C)c1ccc(-c2cc(-c3nnn[nH]3)sc2-c2ccc(C(C)(C)C)cc2)cc1 [DNM0546, 5-(4,5-Bis(4-tert-butylphenyl)thiophen-2-yl)-1H-tetrazole]
activity at 50 µM (AcpS enzyme): 37.2%
remaining activity at 500 µM (AcpS enzyme): 5.16%
MIC [1]: 4 µM (≈ 1.67 µg/mL)
MIC (E. coli D22): > 125 µM

SMILES: FC(F)(F)c1ccccc1-c1cc(-c2nnn[nH]2)sc1-c1ccccc1C(F)(F)F [DNM0549, 5-(4,5-Bis(2-(trifluoromethyl)phenyl)thiophen-2-yl)-1H-tetrazole]
activity at 50 µM (AcpS enzyme): 71.3%
remaining activity at 500 µM (AcpS enzyme): 0.48%
MIC [1]: 30 µM (≈ 13.2 µg/mL)
MIC (E. coli D22): > 125 µM

SMILES: FC(F)(F)Oc1ccccc1-c1cc(-c2nnn[nH]2)sc1-c1ccccc1OC(F)(F)F [DNM0550, 5-(4,5-Bis(2-(trifluoromethoxy)phenyl)thiophen-2-yl)-1H-tetrazole]
activity at 50 µM (AcpS enzyme): 47.8%
remaining activity at 500 µM (AcpS enzyme): 0.39%
MIC [1]: 30 µM (≈ 14.2 µg/mL)
MIC (E. coli D22): > 125 µM

SMILES: c1ccc(-c2cc(-c3nnn[nH]3)sc2-c2ccccc2-c2ccsc2)c(-c2ccsc2)c1 [DNM0559, 5-(4,5-Bis(2-(thiophen-3-yl)phenyl)thiophen-2-yl)-1H-tetrazole]
activity at 50 µM (AcpS enzyme): 7.01%
remaining activity at 500 µM (AcpS enzyme): 0.5%
MIC [1]: 2 µM (≈ 0.937 µg/mL)
MIC (E. coli D22): > 125 µM

SMILES: c1ccc(-c2cc(-c3nnn[nH]3)sc2-c2ccccc2-c2ccoc2)c(-c2ccoc2)c1 [DNM0560, 5-(4,5-Bis(2-(furan-3-yl)phenyl)thiophen-2-yl)-1H-tetrazole]
activity at 50 µM (AcpS enzyme): 63.6%
remaining activity at 500 µM (AcpS enzyme): 0.06%
MIC [1]: 15 µM (≈ 6.55 µg/mL)
MIC (E. coli D22): > 125 µM

SMILES: Cc1ccc(-c2cc(-c3nnn[nH]3)sc2-c2ccc(C)cc2Cl)c(Cl)c1 [DNM0563, 5-(4,5-Bis(2-chloro-4-methylphenyl)thiophen-2-yl)-1H-tetrazole]
activity at 50 µM (AcpS enzyme): 15.1%
remaining activity at 500 µM (AcpS enzyme): 0.56%
MIC [1]: 8 µM (≈ 3.21 µg/mL)
MIC (E. coli D22): 125 µM (≈ 50.2 µg/mL)

SMILES: COc1c(C)cc(-c2cc(-c3nnn[nH]3)sc2-c2cc(C)c(OC)c(C)c2)cc1C [DNM0564, 5-(4,5-Bis(4-methoxy-3,5-dimethylphenyl)thiophen-2-yl)-1H-tetrazole]
activity at 50 µM (AcpS enzyme): 47.6%
remaining activity at 500 µM (AcpS enzyme): 0.75%
MIC [1]: 15 µM (≈ 6.31 µg/mL)
MIC (E. coli D22): > 125 µM

SMILES: COc1ccc(-c2cc(-c3nnn[nH]3)sc2-c2ccc(OC)c(Cl)c2)cc1Cl [DNM0565, 5-(4,5-Bis(3-chloro-4-methoxyphenyl)thiophen-2-yl)-1H-tetrazole]
activity at 50 µM (AcpS enzyme): 22.9%
remaining activity at 500 µM (AcpS enzyme): 0.11%
MIC [1]: 15 µM (≈ 6.5 µg/mL)
MIC (E. coli D22): > 125 µM

SMILES: c1ccc(C2CC2)c(-c2cc(-c3nnn[nH]3)sc2-c2ccccc2C2CC2)c1 [DNM0570]
% AcpS activity at 50 uM (AcpS enzyme): 33.7%
% AcpS activity @ 500 uM (AcpS enzyme): 0.19%
MIC MRSA [1]: 15 µM (≈ 5.77 µg/mL)
MIC E coli D22 (E. coli D22): 125 µM (≈ 48.1 µg/mL)

SMILES: Brc1ccccc1-c1sc(-c2nnn[nH]2)cc1-c1ccccc1C1CCCC1 [DNM0571]
% AcpS activity at 50 uM (AcpS enzyme): 8.19%
% AcpS activity @ 500 uM (AcpS enzyme): 0.11%
MIC MRSA [1]: 8 µM (≈ 3.61 µg/mL)
MIC E coli D22 (E. coli D22): >125 µM

SMILES: Cc1ccc(-c2sc(-c3nnn[nH]3)cc2-c2ccc(Cl)cc2)c2ccccc12 [DNM0572, 5-(4-(4-Chlorophenyl)-5-(4-methylnaphthalen-1-yl)thiophen-2-yl)-1H-tetrazole]
activity at 50 µM (AcpS enzyme): 4.41%
remaining activity at 500 µM (AcpS enzyme): 0.51%
MIC [1]: 8 µM (≈ 3.22 µg/mL)
MIC (E. coli D22): > 125 µM

SMILES: Cc1ccc(C2(c3cccc(Cl)c3)C=C(c3nnn[nH]3)SC2)c2ccccc12 (centres unmarked) [DNM0575, 5-(4-(5-Chlorophenyl)-4-(4-methylnaphthalen-1-yl)thiophen-2-yl)-1H-tetrazole]
activity at 50 µM (AcpS enzyme): 5.86%
remaining activity at 500 µM (AcpS enzyme): 0.23%
MIC [1]: 8 µM (≈ 3.24 µg/mL)
MIC (E. coli D22): > 125 µM

SMILES: Cc1ccc(-c2cc(-c3nnn[nH]3)sc2Cc2ccc(Cl)cc2)c2ccccc12 [DNM0577, 5-(5-(4-Chlorobenzyl)-4-(4-methylnaphthalen-1-yl)thiophen-2-yl)-1H-tetrazole]
activity at 50 µM (AcpS enzyme): 5.54%
remaining activity at 500 µM (AcpS enzyme): 0.4%
MIC [1]: 8 µM (≈ 3.34 µg/mL)
MIC (E. coli D22): > 125 µM

MIC [2]: < 0.25 µM
SMILES: Cc1c(-c2nnn[nH]2)sc(-c2ccc(C)c3ccccc23)c1-c1ccc(C)c2ccccc12 [DNM0620, 5-(4,5-Bis(4-methylnaphthalen-1-yl)-3-methylthiophen-2-yl)-1H-tetrazole]

MIC [2]: < 0.25 µM
SMILES: Cc1c(-c2nnn[nH]2)sc(-c2ccc(Cl)cc2C(C)C)c1-c1ccc(Cl)cc1C(C)C [DNM0631, 5-(4,5-Bis(4-chloro-2-isopropylphenyl)-3-methylthiophen-2-yl)-1H-tetrazole]
